Laboratory results reported in patent US11090304B2 (Amgen Inc., priority 2018, dated 2021).
Like-named read-outs stand apart in the source and are kept apart here.

Assays:
[1] = system: Phosphorylation of ERK1/2 in MIA PaCa-2 cells; assay: Phospho-ERK1/2 MSD assay in MIA PaCa-2 cells; type: cell-based; conditions: read-out: p-ERK IC50 (2 h; MIA PaCa-2), 2 h compound treatment
How it was run: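 IC50 comes from a 4-parameter logistic fit of MSD phospho-ERK1/2 signal in lysates. Before lysis, MIA PaCa-2 or A549 cells were exposed to titrated compound for 2 or 4 h at 37 °C, followed by a 10 min 10 ng/mL EGF stimulus.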

[2] = target: GDP-bound KRAS protein (aa 1-169), containing both G12C and C118A amino acid substitutions (Homo sapiens, UniProt P01116, C118A/G12C); assay: Coupled nucleotide exchange assay (SOS-mediated, AlphaScreen); type: biochemical; conditions: 5 min compound pre-incubation
GDP-bound KRAS protein (aa 1-169), containing both G12C and C118A amino acid substitutions, sequence (P01116 1-169 isoform P01116-2 G12C/C118A): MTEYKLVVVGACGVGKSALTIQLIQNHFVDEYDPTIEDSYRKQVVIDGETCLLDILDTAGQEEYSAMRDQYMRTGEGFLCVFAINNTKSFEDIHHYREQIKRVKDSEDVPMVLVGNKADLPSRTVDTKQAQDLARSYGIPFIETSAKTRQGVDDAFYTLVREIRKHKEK

SMILES	IC50 ([1]; Homo sapiens, MIA PaCa-2, 2 h) [nM]	Coupled exchange IC50 (5 min) [2]	IC50 [1] [nM]
C=CC(=O)N1CCN(c2nc(=O)n(-c3c(C)ccnc3C(C)C)c3nc(-c4cc(N)ccc4F)c(F)cc23)[C@@H](C)C1 (single isomer, unassigned) [Example 58-6-2]	367	0.236 | nda μM	
C=CC(=O)N1CCN(c2nc(=O)n(-c3c(C)ccnc3C(C)C)c3nc(-c4cc(O)cc(Cl)c4Cl)c(F)cc23)[C@@H](C)C1 (single isomer, unassigned) [Example 58-7-1]		0.335 | nda μM	1840
C=CC(=O)N1CCN(c2nc(=O)n(-c3c(C)ccnc3C(C)C)c3nc(-c4cc(O)cc(Cl)c4Cl)c(F)cc23)[C@@H](C)C1 (single isomer, unassigned) [Example 58-7-2]		0.041 | nda μM	515
C=CC(=O)N1CCN(c2nc(=O)n(-c3c(C)ccnc3C(C)C)c3nc(-c4cc(N)ccc4Cl)c(F)cc23)[C@@H](C)C1 (single isomer, unassigned) [Example 58-8-1]	180	0.213 | nda μM	
C=CC(=O)N1CCN(c2nc(=O)n(-c3c(C)ccnc3C(C)C)c3nc(-c4c(O)cccc4Cl)c(F)cc23)[C@@H](C)C1 (single isomer, unassigned) [Example 58-9-1]		0.046 | nda μM	47
C=CC(=O)N1CCN(c2nc(=O)n(-c3c(C)ccnc3C(C)C)c3nc(-c4c(O)cccc4Cl)c(F)cc23)[C@@H](C)C1 (single isomer, unassigned) [Example 58-9-2]		0.349 | nda μM	326
C=CC(=O)N1CCN(c2nc(=O)n(-c3c(C)ccnc3C(C)C)c3nc(-c4ccc(F)cc4F)c(F)cc23)[C@@H](C)C1 (single isomer, unassigned) [Example 58-10-1]	257	0.264 | nda μM	
C=CC(=O)N1CCN(c2nc(=O)n(-c3c(C)cccc3C3CC3)c3nc(-c4c(O)cccc4F)c(F)cc23)[C@@H](C)C1 (single isomer, unassigned) [Example 58-13-2]	371	0.26 | nda μM	
C=CC(=O)N1CCN(c2nc(=O)n(-c3c(C(C)C)ccnc3C)c3nc(-c4ccccc4F)c(F)cc23)[C@@H](C)C1 (single isomer, unassigned) [Example 58-16-2]	317	0.315 | nda μM	
C=CC(=O)N1CCN(c2nc(=O)n(-c3ccccc3C(C)(C)C)c3nc(-c4ccccc4F)c(F)cc23)[C@@H](C)C1 (single isomer, unassigned) [Example 58-17-2]	672	0.849 | nda μM	
C=CC(=O)N1CCN(c2nc(=O)n(-c3c(C4CC4)ccnc3C)c3nc(-c4c(O)cccc4F)c(F)cc23)[C@@H](C)C1 (single isomer, unassigned) [Example 58-19-2]	525	0.226 | nda μM	
C=CC(=O)N1CCN(c2nc(=O)n(-c3c(C4CC4)ccnc3C)c3nc(-c4ccccc4F)c(F)cc23)[C@@H](C)C1 (single isomer, unassigned) [Example 58-20-2]	410	0.807 | nda μM	
C=CC(=O)N1CCN(c2nc(=O)n(-c3c(F)cccc3C(C)C)c3nc(-c4c(O)cccc4F)c(F)cc23)[C@@H](C)C1 (single isomer, unassigned) [Example 59-2-1]	137	0.112 | nda μM	
C=CC(=O)N1CCN(c2nc(=O)n(-c3c(F)cccc3C(C)C)c3nc(-c4ccccc4F)c(F)cc23)[C@@H](C)C1 (single isomer, unassigned) [Example 59-3-1]	343	0.128 | nda μM	
C=CC(=O)N1CCN(c2nc(=O)n(-c3c(C#N)cccc3C(C)C)c3nc(-c4ccccc4F)c(Cl)cc23)[C@@H](C)C1 (single isomer, unassigned) [Example 60-20-2]	33	0.024 | nda μM	
C=CC(=O)N1CCN(c2nc(=O)n(-c3c(C)ncnc3C3CC3)c3nc(-c4ccccc4F)c(Cl)cc23)[C@@H](C)C1 (single isomer, unassigned) [Example 60-30-2]	81	0.108 | nda μM	
C=CC(=O)N1CCN(c2nc(=O)n(-c3c(C)cccc3C(C)C)c3nc(-c4c(O)cccc4F)c(F)cc23)C[C@H]1C (single isomer, unassigned) [Example 63-2]	609	0.311 | nda μM	
C=CC(=O)N1C[C@H](C)N(c2nc(=O)n(-c3c(C)cccc3C(C)C)c3nc(-c4c(O)cccc4F)c(F)cc23)[C@@H](C)C1 (single isomer, unassigned) [Example 63-3]	108	0.059 | nda μM	
C=CC(=O)N1CCN(c2nc(=O)n(-c3c(C)cccc3C(C)C)c3nc(-c4cc(F)c(F)cc4O)c(Cl)cc23)[C@@H](C)C1 (single isomer, unassigned) [Example 64-2]	258	0.151 | nda μM	
C=CC(=O)N1CCN(c2nc(=O)n(-c3c(C)cccc3C(C)C)c3nc(-c4cccc(F)c4O)c(Cl)cc23)[C@@H](C)C1 (single isomer, unassigned) [Example 64-3]	219	0.189 | nda μM	
C=CC(=O)N1CCN(c2nc(=O)n(-c3c(C)cccc3C(C)C)c3nc(-c4c(O)cccc4Cl)c(F)cc23)[C@@H](C)C1 (single isomer, unassigned) [Example 68-1-1]		0.084 | nda μM	128
C=CC(=O)N1CCN(c2nc(=O)n(-c3c(C)cccc3C(C)C)c3nc(-c4c(O)cccc4Cl)c(F)cc23)[C@@H](C)C1 (single isomer, unassigned) [Example 68-1-2]		0.613 | nda μM	735
C=CC(=O)N1CCN(c2nc(=O)n(-c3c(C)cccc3C(C)C)c3nc(-c4c(C)ccc5[nH]ncc45)c(F)cc23)[C@@H](C)C1 (single isomer, unassigned) [Example 68-2-2]	607	0.31 | nda μM	
C=CC(=O)N1CCN(c2nc(=O)n(-c3c(C)cccc3C(C)C)c3nc(-c4nc(N)ccc4Cl)c(F)cc23)[C@@H](C)C1 (single isomer, unassigned) [Example 71-1-1]	725	0.49 | nda μM	
C=CC(=O)N1CCN(c2nc(=O)n(-c3ccccc3C(C)C)c3nc(-c4ccccc4F)c(C)cc23)[C@@H](C)C1 (single isomer, unassigned) [Example 74-1-2]	152	0.118 | nda μM	
C=CC(=O)N1CCN(c2nc(=O)n(-c3c(C)ccnc3C(C)C)c3nc(-c4ccccc4F)c(C)cc23)[C@@H](C)C1 (single isomer, unassigned) [Example 74-2-1]		0.26 | nda μM	136
C=CC(=O)N1CCN(c2nc(=O)n(-c3c(C)ccnc3C(C)C)c3nc(-c4ccccc4F)c(C)cc23)[C@@H](C)C1 (single isomer, unassigned) [Example 74-2-2]		2.325 | nda μM	1040
C=CC(=O)N1CCN(c2nc(=O)n(-c3c(C)ccnc3C(C)C)c3nc(-c4c(O)cccc4F)c(C)cc23)[C@@H](C)C1 (single isomer, unassigned) [Example 74-3-1]	103	0.05 | nda μM	
